The record followed here is PMC3057995, “Potent Anti-Tumor Effect Generated by a Novel Human Papillomavirus (HPV) Antagonist Peptide Reactivating the pRb/E2F Pathway” (PLoS ONE, 2011).

Experiment [1] has as its system cyclin A, E1 and D1 promoters containing E2F binding sites. Briefly: Luciferase reporter assay, SiHa. The note with it: 80 µM, 24 h. It counts as cell-based. The method, then: SiHa cells were co-transfected with E2F-responsive luciferase reporter plasmids and siRNA of Rb, p130 and p107, respectively.
The cells were seeded in 12-well plate at a density of 3×10^5 cells/well. The following day, cells were transfected with SiRNA and luciferase reporter plasmids or siRNA alone, respectively, using LipofectAMINE 2000 as described in the manufacturer's protocol (Invitrogen, Carlsbad, CA, USA).
The reporter assays were performed using Bright-Glo™ Luciferase Assay System (Promega, Madison, WI, USA) according to the manufacturer's instructions. Briefly, cells were plated in 12-well plates at a density of 1.5×10^5 cells/well. The following day, cells were transfected with reporter constructs. […] Thereafter, cell lysates were collected for reporter assays. The luciferase reporter activity of each sample was normalized against the corresponding protein content prior to calculation of the fold induction value relative to the controls. Each sample was determined in triplicate. The results represent means ± SE from three experiment runs.

A further experiment has as its system pRb. Briefly: pRb phosphorylation Western blot. It counts as cell-based. To be noted: SiHa, 80 µM, 24 h. In general terms: A western blot detects proteins with antibodies after separation by electrophoresis.
In experiment [2] the test system is SiHa cells. Put plainly: PI staining cell cycle analysis by flow cytometry. It counts as cell-based. To be noted: for percentage of cells in S-phase: control 25.96%. The protocol: Cell cycle distribution was determined by flow cytometry DNA analysis. […] After 24 h, cells were harvested and counterstained with PI (Invitrogen, Carlsbad, CA, USA) for flow cytometry according to the manufacturer's instructions. Briefly, cells were trypsinized and resuspended in 1 ml PBS. Cell suspension was dropped slowly into 4 ml anhydrous ethanol pre-cooled at −20°C and mixed. After standing at −20°C for more than 15 min, the ethanol was removed by centrifugation, after which 5 ml PBS was added and mixed, and cells were re-hydrated at room temperature for 15 min. PBS was then removed by centrifugation. Cells were stained with 2 µg/ml propidium iodide in 1 ml dilution buffer (100 mmol/L Tris, pH 7.4, 150 mmol/L NaCl, 1 mmol/L CaCl2, 0.5 mmol/L MgCl2, 0.1% Nonidet P-40, 100 µg/ml RNAase) at room temperature for 15 min and subjected to flow cytometry analysis. Analysis was performed on an Epics-XL flow cytometer (Beckman Coulter, Inc. CA, USA) with Modfit 3.0 software (Verity Software House, Topsham, ME, USA).

The subject of the next experiment is HeLa cells. Briefly: MTT cell viability assay, HeLa. The class given is cell-based. To be noted: HPV18-positive, A540. The method, then: (§1) Cell viability was determined with an MTT assay. Briefly, the cells were seeded into 96-well plates at a density of 4–5×10^3 cells/well. The cells were allowed to recover for 24 h before the medium was replaced with DMEM supplemented with peptides at different concentrations. The solvent of the peptides was set as the control. The peptide-supplemented medium was replaced daily and the respective concentrations were maintained. The cells were subjected to an MTT cell proliferation assay at different time points. The plates were incubated at 37°C for 3 h with the addition of 20 µl/well MTT (5 mg/ml). Untransformed MTT in the solution was removed by aspiration. The formazan product was dissolved in DMSO, and plates were shaken vigorously at room temperature for 10–15 min to ensure complete solubilization. The optical density of the formazan solutions was measured by microplate reader at 540 nm.
(Formazan colour is commonly taken as a measure of viable cells.)

Experiment [3] has as its system SiHa cells. Put plainly: MTT cell viability assay, SiHa. The class given is cell-based. To be noted: HPV16-positive, 80 µM in Fig. 3C, medium replaced daily, A540, mean ± SE, at least two independent runs in sextuplicate. The protocol: as §1
The next experiment has as its system SiHa tumor xenografts. Put plainly: Subcutaneous tumor model in nude mice. The class given is in vivo, mouse (Balb/C-nu/nu). The note with it: 400 and 800 µg/mouse i.v., 16 days, p<0.01. The protocol: A subcutaneous tumor model of nude mice was constructed. In brief, six-week-old female nude mice (18±2 g) were subcutaneously inoculated with 1.5×10^7 SiHa cells. When the tumor size reached about 100 mm^2, the mice were randomly divided into four groups with 5 mice each, namely, control group, low-dose group, middle-dose group, and high-dose group. […] The mice were raised for another 3 weeks. Tumor sizes were measured with a caliper every three days and tumor volume was calculated using “volume = length×width^2/2.” At the end of the experiment, all mice were sacrificed and the weights of the detached tumors were measured. Tumor growth inhibition ratio was represented as the tumor weight relative to the control, calculated using the formula, “Relative tumor weight (% of control) = average tumor weight of treatment group/average tumor weight of control group×100%.”

For the next experiment, the system named is HPV18 E7. Put plainly: Competitive ELISA with HPV18 E7 anti-serum. It counts as binding. To be noted: peptides 0.08 µM to 800 µM vs HPV18 E7 anti-serum; mean ± SE, three independent experiments. (An ELISA detects its analyte on a solid surface through an enzyme-linked reagent.)
Another experiment relates to cyclins A, D1, and E1. Briefly: qRT-PCR of tumor tissues. The class given is in vivo, mouse (Balb/C-nu/nu). The protocol: Total RNA was extracted from the cultured cells using TRIzol reagent (Invitrogen, Carlsbad, CA,USA) according to the manufacturer's instructions. qRT-PCR was used to confirm the expression levels of mRNAs. Reverse transcription and qPCR were performed according to the protocol of Reverse Transcriptase System™ and SYBR® premix Ex Taq™ (Perfect Real Time) (TaKaRa, Dalian, P.R. China) on the ABI 7300 Real Time PCR System (Applied Biosystems, Foster City, CA, USA) supplied with analytical software. β-actin mRNA levels were used for normalization. Each sample was determined in triplicate. The results represent means ± SE from three experiment runs.

“Also recorded” adds a separate entry of the source.

For the sequence “SACPKGLDWCGG (C&C bridged by disulfide bonds) (disulfide) [Pep-7]”, the “activities of cyclin A, E1 and D1 promoters” value in experiment [1] (means ± SE, three experiments) is “remarkable down-regulation”. The “influence of p130 or p107 knock-down on Pep-7 suppression of promoters” value in experiment [1] (p130 or p107 siRNA) is given as “did not affect the influence of Pep-7 on these promoters”. Also, the “influence of pRb knock-down on Pep-7 suppression of promoters” value in experiment [1] (pRb siRNA) is “abrogated the suppression of cyclin A, E1 and D1 promoter activities by Pep-7”. For the same sequence, the “phosphorylation of pRb” value in the experiment on pRb was “not affected significantly”. The “percentage of cells in S-phase” value was found to be 14.75% in the experiment with SiHa cells [2] (32 µM Pep-7, 24 h) and 8.75% in the experiment on SiHa cells [2] (80 µM Pep-7, 24 h). Besides, the G1-to-S phase transition entry in the experiment with SiHa cells [2] (24 h, 32 and 80 µM, p<0.02) is reported as “inhibited G1-to-S phase transition of SiHa cells significantly; also recorded: induced G1 arrest in SiHa cells”. Besides, the “cell proliferation (MTT)” value is “could not repress the proliferation of HeLa cells” in the experiment with HeLa cells; “repressed significantly by Pep-7 in a dose- and time-dependent manner” in the experiment with SiHa cells [3]. Also, in the experiment with SiHa tumor xenografts, the “anti-tumor efficacy” value is listed as “significant anti-tumor efficacy”. Moreover, the “binding to HPV18 E7” value in the experiment with HPV18 E7 is “did not bind to HPV18 E7”. Besides, the “cyclins A, D1, and E1 RNA levels in tumor tissue” value with cyclins A, D1, and E1 was “reduced”.
